In patent publication US9629815B2, “Benzoquinone derivatives for treating oxidative stress disorders” (Edison Pharmaceuticals, Inc., priority 2012, dated 2017):

Legend:
Assay type in all cases: cell-based
[1] = test system: Human dermal fibroblasts from Friedreich's Ataxia patients; experiment: Rescue of BSO-stressed FRDA fibroblasts (Calcein AM viability); conditions: FRDA fibroblasts GM04078, 1 mM BSO, 48 h, read-out: protection against FRDA, EC50
Experimental: Test samples and solvent controls were tested for their ability to rescue FRDA fibroblasts stressed by addition of L-buthionine-(S,R)-sulfoximine (BSO), as described in Jauslin et al., Hum. Mol. Genet. 11(24):3055 (2002), Jauslin et al., FASEB J. 17:1972-4 (2003), and International Patent Application WO 2004/003565. […] This specific BSO-mediated cell death can be prevented by administration of antioxidants or molecules involved in the antioxidant pathway, such as alpha-tocopherol, selenium, or small molecule glutathione peroxidase mimetics. However, antioxidants differ in their potency, i.e. the concentration at which they are able to rescue BSO-stressed FRDA fibroblasts.
MEM (a medium enriched in amino acids and vitamins, catalog no. 1-31F24-I) and Medium 199 (M199, catalog no. 1-21F22-I) with Earle's Balanced Salts, without phenol red, were purchased from Bioconcept. Fetal Calf Serum was obtained from PAA Laboratories. Basic fibroblast growth factor and epidermal growth factor were purchased from PeproTech. 2,3,5-trimethyl-6-(12-hydroxy-5,10-dodecadiynyl)-1,4-benzoquinone, penicillin-streptomycin-glutamine mix, L-buthionine (S,R)-sulfoximine, and insulin from bovine pancreas were purchased from Sigma. Calcein AM was purchased from Molecular Probes. […]

[2] = test system: human dermal fibroblasts from LHON patients; experiment: Rescue of fibroblasts from LHON patients from oxidative stress; conditions: Fibroblast, LHON cells GM03858, screen similar to Example 1, read-out: protection against LHON, EC50
[3] = test system: human dermal fibroblasts from Huntington's patients; experiment: Rescue of fibroblasts from Huntington's patients from oxidative stress; conditions: Fibroblast, Huntington's cells GM 04281, screen similar to Example 1, read-out: protection against Huntington's, EC50
[4] = test system: human dermal fibroblasts from Parkinson's Disease patients; experiment: Rescue of fibroblasts from Parkinson's Disease patients from oxidative stress; conditions: Fibroblast, PD cells AG20439, screen similar to Example 1, read-out: protection against Parkinson's Disease, EC50

Question: Which EC50 [1] does the source give for CC1=C(C)C(=O)C(CCCCC#CCCCC#CCO)=C(C)C1=O [2,3,5-trimethyl-6-(12-hydroxy-5,10-dodecadiynyl)-1,4-benzoquinone] here?
Answer: The EC50 was less than 100 nM.

Question: And the EC50 [2]?
Answer: The EC50 was less than 100 nM.

Question: What about the EC50 [3] of the same compound?
Answer: The EC50 was less than 50 nM.

Question: What about the EC50 [4] of the same compound?
Answer: Its EC50 is less than 100 nM.
